This assay has as its target Transmembrane protease serine 2 (Homo sapiens, UniProt O15393). As to the kind of experiment: titration assay. The text has this: To identify inhibitors of TMPRSS2 that may be used directly in clinical studies or as lead compounds to develop targeted drugs, we screened several chemical libraries with active TMPRSS2 protease, the […] TMPRSS2 peptide substrate Boc-Gln-Ala-Arg-MCA, and compound concentrations of 5 μmol/L. We have used a similar approach to identify inhibitors of the hepsin protease.
Transmembrane protease serine 2, sequence (O15393 1-255 limits assumed): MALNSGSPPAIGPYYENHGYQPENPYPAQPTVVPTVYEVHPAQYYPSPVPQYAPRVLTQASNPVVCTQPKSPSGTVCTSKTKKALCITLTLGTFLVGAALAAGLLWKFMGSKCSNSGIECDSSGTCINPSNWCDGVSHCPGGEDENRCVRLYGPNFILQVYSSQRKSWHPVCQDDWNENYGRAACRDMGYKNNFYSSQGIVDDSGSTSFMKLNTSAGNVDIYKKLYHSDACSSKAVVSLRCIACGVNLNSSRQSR
Transmembrane protease serine 2, sequence (O15393 256-492 limits assumed): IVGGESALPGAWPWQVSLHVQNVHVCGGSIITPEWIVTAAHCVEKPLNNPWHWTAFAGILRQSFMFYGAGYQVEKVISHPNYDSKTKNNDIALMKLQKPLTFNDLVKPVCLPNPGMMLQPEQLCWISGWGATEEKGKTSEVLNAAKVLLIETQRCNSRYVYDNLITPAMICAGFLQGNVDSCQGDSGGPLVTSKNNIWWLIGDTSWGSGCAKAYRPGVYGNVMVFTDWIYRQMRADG
Broadly, the IC50 is the concentration at which inhibition is half-maximal. A higher IC50 goes with lower potency. For the compound `CN(Cc1cc(Br)cc(Br)c1N)C1CCCCC1` [Bromhexine], the IC50 amounted to 750 nM.

Compound `COC(=O)c1ccc(OC(=O)c2cccs2)cc1` [0591-5329] came in with an IC50 of 930 nM.

As for `COC(=O)Cc1cc(=O)oc2cc(O)ccc12`, the midpoint of inhibition, the IC50, lay at 1370 nM.

On to `CCN1CCn2c3c(c4cc(Br)ccc42)CCCC31` (stereo not given) [4401-0077], for which 2680 nM corresponded to half-maximal inhibition (IC50).

`CCn1c(-c2ccc(Cl)cc2)csc1=Nc1ccccc1` [8008-1235] displayed a half-inhibitory concentration (IC50) of 2640 nM.

The values above are taken from BindingDB's records for doi:10.1158/2159-8290.CD-13-1010 (Fred Hutchinson Cancer Research Center, 2014).
